# Data taken from patent US20250276999A1, “PEPTIDES FOR PROMOTING HAIR FOLLICLE NEOGENESIS, AND PREVENTION/MITIGATION OF UNTOWARD EFFECTS OF RADIATION TREATMENT” (Trustees of Tufts College, priority 2022, published 2025).
# Entries after “also recorded” stand apart in the source; their conditions may differ.
# Columns and labels:
# [1] = system: human hair follicle formation in grafted DECs; test: Dermal-epidermal composites (DECs) grafted onto nude mice; assay type: in vivo, NIH(S)-nu/nu female mice
# Method: We next asked if TNS peptides could increase human hair follicle formation in grafted dermal-epidermal composite cultures. Human dermal papilla cells isolated from temporal scalp dermis and propagated in vitro. Normal foreskin keratinocytes (NFK) were isolated from neonatal foreskins (pooled from 5-7 donors) and were cultured in serum-free medium supplemented with EGF and bovine pituitary extract. Dermal epidermal composites (DECs) were prepared with human dermal papilla cells and NFK and were grafted onto nude mice. Imaging was done at 4 weeks, 6 weeks, 8 weeks, 10 weeks and 12 weeks and staining for hHLA was performed to evaluate hair follicle anatomy (FIG. 3). TSN peptides increased hair follicle generation (FIG. 3) as well as increased epidermal proliferation in vivo (FIG. 4).
# Dermal-epidermal composites and grafting: Human dermal papilla cells isolated from temporal scalp dermis (Promocell, Heidelberg, Germany) from a donor (HDP47) were propagated in vitro according to manufacturer's recommendations. Normal foreskin keratinocytes (NFK) were isolated from neonatal foreskins (pooled from 5-7 donors) and were cultured in serum-free medium (Keratinocyte-SFM, Invitrogen), supplemented with EGF and bovine pituitary extract according to manufacturer's recommendation. Dermal epidermal composites (DECs) were prepared with human dermal papilla cells and NFK and were grafted onto nude mice. […]
# [2] = system: X-ray irradiated and wounded mice; test: Combined injury murine model (thoracic X-ray irradiation plus wound); assay type: in vivo, C57BL/6 mice
# From the text: The C57BL/6 strain of mice has been utilized extensively for the study of radiation-induced skin injuries. We determined that 16 Gy is the minimal dosage for the induction of radiation burns in C57BL/6 mice that are not repaired within 45 days. Sham irradiated mice without wounds were used as controls for radiation dermatitis, and treated identically as irradiated mice. Wounded mice, without radiation, were used as controls for combined injury.
# Animals were irradiated in the RS2000 small animal irradiator. The RS2000 provides a cone-shaped radiation field with irradiation at 12.39-40.50 cm from the X-ray source. For dose measurements, irradiation was performed with the following settings: 160 kVp, 25 mA, 90 s irradiation time and 0.3 mm Cu beam filtration. The approximate HVL provided by the manufacturer was 0.62 mm Cu. The University of Wisconsin Medical Radiation Research Center (UW MRRC) provided eight acrylic mouse phantoms with three (1×1×1 mm) Harshaw thermoluminenscence dosimeter (TLD)-100 microcubes (ThermoElectron Corp., Oakwood Village, OH) embedded in each phantom. The cylindrical phantom had dimensions of 27 mm in diameter (D)×65 mm in length (L) and was stabilized by a cylindrical insert 15 mm (D)×27 mm (L) with a 3 mm thick stand. A custom lead shield was placed on the floor of the irradiator, with the mouse thoracic region ˜43.75 cm from the X-ray source. Dose measurements were conducted twice to account for set-up error and reproducibility. TLDs were processed at UW MRRC using a national standard with an expanded uncertainty (k=2) of 5%. The dose rate was reported for each aperture position 1-4 as an absorbed dose rate to water (ADRW, Gy/min) and the two repeated measurements were averaged.
# Mice (12-14 weeks of age) were anesthetized using inhaled anesthesia (isoflurane), and the fur was clipped on the dorsal side of the thoracic region. Two days after fur clipping, mice to be used for combined injury were given acetaminophen (150 mg/kg in 0.5 ml sterile saline) by gavage. Animals were then anesthetized with injected anesthesia (150 mg/kg ketamine/18 mg/kg xylazine) and placed in Lucite jigs for exposure to 16.5 Gy thoracic irradiation in the RS2000 X-ray irradiator as previously described. For combined injury, immediately following thoracic irradiation and while still under anesthesia, the area of the skin was scrubbed with betadine or chlorhexidine, followed by cleaning with an alcohol pad. A 9/16 inch diameter punch biopsy tool was used to create a 1 cm wound in the central dorsal thoracic region, roughly in the center of the field of radiation exposure. The panniculus carnosus muscle and overlying skin will be removed. The wound will be left open to air. The size of the wound approximates 15% of the total body skin surface.
# TSN6 peptide (5 μg/day in 50 μl sterile saline) or hepatocyte growth factor (HGF; 3.3 μg/day in 50 μl sterile saline) or vehicle (sterile saline, 50 μl) were injected subcutaneously on days 2, 7 and 10 post-irradiation. Injections were made caudal, adjacent to the irradiated or irradiated/wounded area.
# Animals were monitored daily for 85 days post-irradiation for both radiation dermatitis and combined injury models. Radiation dermatitis was separately scored for hair loss, erythema, scale, and ulceration. Scoring for erythema, scale and ulceration were previously described: 0=none; 1=minimal; 2=mild; 3=moderate; 4=marked. Because all animals underwent fur clipping prior to irradiation and wounding, scoring for hair loss was determined as failure to regrow hair in the irradiated areas: 0=none; 1=minimal; 2=mild; 3=moderate; 4=marked. Animals were photographed for the measurement of wounds and for dermatitis scoring. […] Weight was measured as an indication of overall health.
# [3] = 16.5 Gy plus wound, s.c. days 2, 7, 10, TSN6 5 μg/day, HGF 3.3 μg/day
sequence,measurement,setting,value
"HSPDIQLQKGLTFEPIQIK [TSN6, 19 amino acid peptide derived from multimerin-1, Coiled coil domain]",epidermal proliferation in vivo (Ki-67+ cells in epidermis of grafts),"[1]; 1 μM peptide vs scrambled, P=0.08 (FIG. 4)",stimulates epidermal proliferation
same,human hair follicle formation in grafted DECs,"[1]; 12 weeks after grafting, human HLA staining, vs TSN6-scrambled (FIG. 3)",increases human hair follicle formation
same,time to wound closure in the presence of radiation,"[2]; 16.5 Gy plus 9/16 inch wound, TSN6 5 μg/day s.c. days 2, 7, 10, irradiated vehicle ~30 days, no radiation ~14 days",about 16 days post-irradiation
same,combined injury (overall),"[2]; 16.5 Gy plus wound, TSN6 5 μg/day s.c. days 2, 7, 10 (FIG. 7)",Mitigation of combined injury
same,"characteristics of radiation dermatitis (hair loss, scale, erythema, ulceration) including combined score",[2]; [3],markedly reduced
same,rate of wound closure / wound repair,[2]; [3],increased the rate of wound closure
same,radiation dermatitis in images of mice,"[2]; 57, 71 and 75/79 days post-irradiation, vs vehicle (FIG. 13)",vast improvement; also recorded: improves radiation dermatitis
same,wound closure,[2]; 79 days post-irradiation (FIG. 13C),full wound closure
same,hair regrowth,"[2]; 79 days post-irradiation, vehicle: no hair regrowth (FIG. 13)",hair regrowth; also recorded: regrows pigmented hair
